Assay results: patent publication US10105443B2, “Sustained-release drug carrier composition” (POLYPID LTD., priority 2008, dated 2018)

Assays:
Assay type in all cases: physicochemical
[1] = Release of drug from bone filler particles coated with the matrix composition following hydration; conditions: for kinetics of co-release from the surface of coated bone particles: surrounding medium 5% PBS at 37° C., FIG. 15; for period of constant release of DOX: bone filler particles (BioOss) coated with matrix PLGA 85:15, cholesterol, DSPC (18:0), with or without alpha-tocopherol
Method: • 50-75 KDa PLGA (poly (lactic-co-glycolic acid, 85:15 ratio)) • Cholesterol-50%-100% w/w vs. PLGA. The mixture is mixed. The entire process is performed at room temperature. A fat-polymer combination matrix is thus obtained. II. Preparation of Second Solution The following materials are mixed with a volatile organic solvent (methanol and ethyl acetate) • a. […] A phosphatidylcholine, —1,2-distearoyl-sn-glycero-3-phosphocholine (DSPC) present as 300-700% w/w vs. PLGA. The mixture is mixed well. The entire process is conducted at room temperature. When phosphatidylcholine having long saturated fatty chains is used (e.g. DSPC) the process is typically performed at higher temperatures of about 40-50° C. No water is required in the mixture. […] Stirring is continued for 1-5 minutes. The entire process is performed at a temperature of 20-50° C. depending of the lipid used. IV—Evaporation Following Surface Coating In order to coat bone filler particles, the particles are added to the mixture of stage III followed by evaporation of the volatile organic solvents. The entire process is performed at a temperature of 40-50° C. The ratio between the volume and the percentage of solids in the mixture of stage III and the mass of the bone particles will determine the release period of the drug post hydration of the coated particles. V—Vacuum Drying Coated bone particles are vacuum-dried for storage. […] The rate of sustained release of Doxycycline hyclate encapsulated within the matrix composition of the present invention was measured and compared to the release rate of the drug from bone particles socked with free DOX solution (having the same amount of DOX).
The release profile of DOX from a mixture of coated and non coated bone (xenografts bovine—commercial—BioOss) particles was measured. The coated particles were mixed with similar plain (not-coated) bone particles in a ratio of 1:4. […] The formulation in this study comprised PLGA 75:25 and DPPC.
The release of DOX from bone particles (12 mg/sample) coated with different mass of the DOX containing matrix formulation was compared. Following hydration (5% serum at 37° C.) the duration of release of 90% of the initial DOX amount in the formulation was monitored (FIG. 10).

[2] = Influence of polymer/lipid composition of the matrix on release rate of the entrapped agent; conditions: FIG. 8
Method: The influence of different polymer/lipid compositions on the release rate of a given drug was measured using fluorescein entrapped within a matrix compositing PLGA (75:25), DPPC as the main phospholipid and varying amounts of lauric acid (LA) and phosphatidylethanolamine (PE) having saturated fatty acid moieties of at least 14 carbons. […] The release lasted between about 20 to about 110 days when LA:PE w/w % ratio was varied between 10:10 to 0:0 respectively (vs. the total mass of the formulation). The drug release profile from bone particles coated with matrix formulation comprising PE versus bone particles coated with matrix formulation comprising cholesterol was compared.
The fact that different polymer/lipid compositions influence the release rate can be used to fulfill different clinical needs. […] In contrast, when the antibiotic drug, DOX, was associated with a slow degrading polymer such as PLGA 85:15 and a 18:0 phospholipid such as DSPC, complete release of the drug was accomplished after more than 50 days (FIG. 8).

[3] = Drug release from absorbable gelatin sponge containing the sustained release formulation (HPLC); conditions: 5% serum at 37° C.
Method: A solution containing PLGA—75:25, PC 16:0, cholesterol 10% and Doxycycline hyclate (DOX) 10% was injected into the center of the absorbable gelatin sponge foam cube (Gelatamp. ROEKO). The overall content of DOX in the injected formulation was 380 μg in 25 μl. The solvent was evaporated in a 37° C. incubator and subsequently over night under vacuum. As a control, the common use of pre-wetting with a similar dose of DOX (380 μg) solution was injected into the gelatin sponge tube. Following hydration (5% serum at 37° C.) the release of DOX from the gelatin sponge cube into the surrounding was detected and quantified by HPLC.

time to full release of the drug ([2]; PLGA 50:50 and 14:0 phospholipid DMPC) [days]	time to complete release of the drug ([2]; PLGA 85:15 and 18:0 phospholipid DSPC)	share of encapsulated DOX released following zero order kinetics ([1]; DOX encapsulated in the formulation, FIG. 2) [%]	period of constant release of DOX [1]	period of constant release of DOX ([1]; listed as Doxycycline hyclate)	release kinetics ([1]; bone filler particles coated with matrix PLGA 85:15, cholesterol, DSPC, FIG. 2)	drug released in 3 hours after hydration ([1]; bone particles coated with PLGA 75:25 / DPPC formulation, mixed 1:4 with non-coated particles, 5% serum at 37° C.)	release profile, matrix comprising PE (DMPE) versus matrix comprising cholesterol ([1]; coated bone particles, 5% serum at 37° C., FIG. 7)	effect of presence of non-coated particles on release of DOX from the formulation ([1]; coated:non-coated bone particles 1:4, 5% serum at 37° C., PLGA 75:25 and DPPC)	drug released in 3 hours after hydration ([1]; uncoated bone particles soaked with free DOX (control), 5% serum at 37° C.) [%]	DOX released immediately into the medium ([3]; control: gelatin sponge pre-wetted with DOX solution (380 μg))	DOX released into the medium immediately after hydration ([3]; gelatin sponge (Gelatamp) with PLGA 75:25, PC 16:0, cholesterol 10%, DOX 10%, 380 μg DOX)	period of gradual release of the rest of the drug ([3]; gelatin sponge with PLGA 75:25, PC 16:0, cholesterol 10%, DOX 10%)	Molecule	kinetics of co-release from the surface of coated bone particles [1]	dependence of duration of release of 90% of DOX on formulation mass ([1]; bone particles 12 mg/sample coated with different mass of formulation, 5% serum at 37° C., FIG. 10)
													CCCCCCCCCCCCCCCC(=O)OC[C@H](COP(=O)([O-])OCC[N+](C)(C)C)OC(=O)CCCCCNc1ccc([N+](=O)[O-])c2nonc12 [NBD-PC, 1-palmitoyl-2-{6-[(7-nitro-2-1,3-benzoxadiazol-4-yl)amino]hexanoyl}-sn-glycero-3-phosphocholine]	zero order kinetics	
≤ 10													CC(C(=O)O)c1ccc(-c2ccccc2)c(F)c1 (stereo not shown) [NSAID, Flurbiprofen]		
	more than 50 days	~70	at least 3 weeks	about three	zero order kinetics	about 15%	behaves similarly	not affected	88	total amount	about 40%	more than 7 days	Doxycycline hyclate	zero order kinetics	linearly depended on the formulation mass
